Structures are written as SMILES.

In general, melting point refers to the temperature, or range, at which the solid turns liquid. Compound `COc1cc(OC)nc(C2(O)OC(=O)c3c(Cl)cccc32)n1` (stereo not given) registered a melting point of 188 to 190 °C. Then `CCCCOc1ccccc1Nc1ncc(C(=O)O)c(=O)[nH]1`, with 212 to 214 °C; and `CCOc1cc(C=[N+]([O-])C2CCCCC2)ccc1OC`, with 114 °C. In turn, `O=c1[nH]c2ncccc2c(=O)n1-c1ccccc1` yielded a melting point of 304 °C. Then `Fc1ccc(C2CN(C(c3ccccc3)c3ccccc3)C2)cc1`, with 65 to 66 °C; and `CNC(=O)N1N=C(c2ccc([N+](=O)[O-])c(C)c2)c2cc3c(cc2CC1C)OCO3` (stereo not given), with 221 to 229 °C.

`O=Cc1ccccc1NC1CCN(Cc2ccccc2)CC1` gave a melting point of 87 to 90 °C. Compound `CC(=O)NC[C@H]1CN(c2ccc(C(=O)c3ccc4ccc(C)cn34)cc2)C(=O)O1` had a melting point of 237 to 239 °C. The result for `Nc1cccc(Cn2c(-c3ccc(NC(=O)c4ccccc4)cc3)ccc2-c2ccccc2Cl)n1` reads 196 to 198 °C; that for `CCCOc1ccc(C(=O)CN2CCOCC2)cc1-c1nc2c(CCC)nn(C)c2c(=O)[nH]1`, 128 to 129 °C. The result for `Nc1sc2c(c1C(=O)c1ccc(Br)s1)CCCC2` reads 160 to 163 °C; that for `COc1ccc(C(=O)NC(=O)NC2CN3CCC2CC3)cc1` (stereo not given), 166 to 168 °C; that for `O=C1COc2cc(CN3CCN(c4ccccc4)CC3)ccc2N1`, 191 to 193 °C.

`NC1(CCC(O)(P(=O)(O)O)P(=O)(O)O)CCCCC1`: the melting point came out at 143 °C. For `CCNc1nc(OC)c(C(=O)NCC2CCCN2C2CCCCC2)nc1Cl` (stereo not given), the melting point lay within 164 to 165 °C. Then `CNc1ccc(C#Cc2cccc(-c3nc(NC)nc4cc(OC)c(OC)cc34)c2)cn1`, with 136 to 138 °C.

`CCc1nccn1CC(=O)c1ccc(-c2ccc(N3C[C@H](Cn4ccnn4)OC3=O)cc2F)cn1` showed a melting point of 77 to 79 °C. The compound `CC(C)(C)CN(CC(O)C(Cc1ccccc1)NC(=O)C(CC(N)=O)NC(=O)NCc1ccccc1)C(=O)NC(C)(C)C` (stereo not given) gave a melting point of 177 to 178 °C. The result for `O=C(ON1C(=O)CCC1=O)c1ccc(-c2ccc(S(=O)(=O)NCCO)cc2)[nH]c1=O` reads 204 to 205 °C; that for `CS(=O)c1ncc(Cl)cn1` (stereo not given), 48 °C; that for `COc1cc(C)nc(-n2cccn2)n1`, 52.5 to 53 °C. The result for `COc1cccc2oc(-c3ccc(F)cc3)cc(=O)c12` reads 178 °C; that for `CCOC(=O)CCc1sc(N)nc1-c1ccc(Cl)cc1`, 160 to 161 °C. `CCCCCCCCCCOc1cnc(-c2ccc(CCCCCC(C)O)cc2)nc1` (stereo not given) had a melting point of 78 to 79 °C. The result for `COc1cc(C)ccc1Oc1ccc([N+](=O)[O-])cc1` reads 78 to 80 °C; that for `O=C1C2C(C(=O)N1c1ccccc1S)C1(Cl)C(Cl)=C(Cl)C2(Cl)C1(Cl)Cl` (stereo not given), 195 to 198 °C. Then `O=C(c1c(F)cccc1F)N1COCN(c2ccc(Cl)cc2)C1=O`, with 125 to 126 °C; and `COC(=O)c1ccc(SC#N)c([N+](=O)[O-])c1`, with 93 to 96 °C; and `COc1ccc(C(=O)Nc2cc(C(F)(F)F)c(Br)cc2S(N)(=O)=O)cc1`, with 321 °C. The result for `Cc1c(C)c(N2Cc3cc(Cl)c(Cl)cc3C2)c(C)c2c1OC(C)(C)C2c1ccc(C(C)C)cc1` (stereo not given) reads 148 to 150 °C; that for `CC1(C)OC(C=Cc2ccc(F)cc2)=CC1=O`, 55 to 57 °C.

As to `CC(C)c1nc(CCOCc2ccccc2)n(CCO)c1Sc1cc(Cl)cc(Cl)c1`, the melting point was in the range of 129 to 130 °C.

`Nc1cc(=O)nc(Nc2ccccc2)n1-c1ccc(Br)cc1` showed a melting point of 211 to 213 °C.

Regarding `COCCOC(=O)c1cc(NC(=O)OCc2ccccc2)ccc1OCCOC`, the melting point lay within 104 to 105 °C. Then `COC(=O)C1CC(C(CC(O)C(CC2CCCCC2)NC(=O)C(Cc2c[nH]cn2)NC(=O)C(Cc2ccccc2)NC(=O)OC(C)(C)C)C(C)C)OC1=O` (stereo not given), with 95 °C.
